Experimental data as given in US20070135497A1, “Biphenyl derivative or its salt, and pesticide containing it as an active ingredient” (ISHIHARA SANGYO KAISHA LTD., priority 2003, published 2007).

SMILES	melting point [°C]
CNC(=O)c1cc(-c2c(C)cc(C)cc2C)ccc1Cl [Compound No. 2-12, N-methyl-6-chloro-3-(2′,4′,6′-trimethylphenyl)benzamide]	130
CCNC(=O)c1cccc(-c2c(Cl)ccc(C(F)(F)F)c2Cl)c1 [1-127, N-ethyl-3-(2′,6′-dichloro-3′-trifluoromethylphenyl)benzamide]	137
CNC(=O)c1cccc(-c2c(Cl)ccc(Cl)c2Cl)c1 [1-72, N-methyl-3-(2′,3′,6′-trichlorophenyl)benzamide]	135.3
CNC(=O)c1cccc(-c2c(C)cc(OC)cc2C)c1 [1-65, N-methyl-3-(2′,6′-dimethyl-4′-methoxyphenyl)benzamide]	139.6
CNC(=O)c1cccc(-c2c(C)cc(C)cc2C)c1 [1-22, N-methyl-3-(2′,4′,6′-trimethylphenyl)benzamide]	142.9
CNC(=O)c1cccc(-c2c(C)cc(Cl)cc2C)c1 [Compound No. 1-23, N-methyl-3-(4′-chloro-2′,6′-dimethylphenyl)benzamide]	137.1
Cc1cc(Oc2ccc(C(F)(F)F)cn2)cc(C)c1-c1cccc(N)c1 [Compound No. 1-57, 4-(3′-aminophenyl)3,5-dimethylphenyl 5-trifluoromethyl-2-pyridyl ether]	200.3
CNC(=O)c1cccc(-c2c(Cl)ccc(Br)c2Cl)c1 [1-82, N-methyl-3-(2′,6′-dichloro-3′-bromophenyl)benzamide]	158
CNC(=O)c1cccc(-c2c(Cl)ccc(C(F)(F)F)c2Cl)c1 [1-120, N-methyl-3-(2′,6′-dichloro-3′-trifluoromethylphenyl)benzamide]	126.1

More lines, now with the values ahead:

melting point [°C]	SMILES
142.5	CNC(=O)c1cc(-c2c(Cl)cccc2Cl)ccc1F [2-22, N-methyl-3-(2′,6′-dichlorophenyl)-6-fluorobenzamide]
102	Nc1cccc(-c2c(Cl)cccc2Cl)c1 [1-268, 3-(2′,6′-dichlorophenyl)aniline]
174.8	CNC(=O)c1cccc(-c2c(Cl)cccc2Cl)c1 [1-30, N-methyl-3-(2′,6′-dichlorophenyl)benzamide]
64.1	CNC(=O)c1cccc(-c2c(Cl)ccc(N)c2Cl)c1 [1-108, N-methyl-3-(2′,6′-dichloro-3′-aminophenyl)benzamide]
